Source: US4375542A, “Kijanimicin antibiotics and derivatives thereof” (Schering Corporation, priority 1980, dated 1983)

Assays:
E. lentum = test: in vitro activity against anaerobic bacteria: E. lentum; format: cell-based
Text: (§1) Kijanimicin is also active against strains of anaerobic bacteria other than P. acnes. For example, when tested in vitro, the antibiotic was active against strains of Peptococcus species, Peptostreptococcus and E. lentum.

[1] = acute toxicity (LD50) and therapeutic index; format: in vivo
Peptostreptococcus = test: in vitro activity against anaerobic bacteria: Peptostreptococcus; format: cell-based
Text: as §1

Peptococcus species = test: in vitro activity against anaerobic bacteria: Peptococcus species; format: cell-based
Text: as §1

[2] = anti-inflammatory activity, art recognized test procedures
P-388 leukemia = test: in vivo anti-tumor test, P-388 leukemia in mice (standard National Cancer Institute test)
Method: Anti-tumor activity was determined by the standard National Cancer Institute test which was published in Cancer Chemothr. Rep. 3:1-103 1972.
In the test 10^6 cells per mouse of P-388 leukemia (bleomycin sensitive) is administered intraperitoneally on day 1. The test compound is serially diluted (1/10, 1/100, etc.) and each dilution is administered to a mouse from day 1 to day 9. Animals dying on or before day 5 are listed as toxic deaths. Controls are run using bleomycin and olivomycin A. The results are calculated by the formula in which MST=medium survival time in days;
MST ^T /C=MST-T/MST-Control×100.

Plasmodium berghei = test: antimalarial activity in infected CF1 mice; format: in vivo, Plasmodium berghei; CF1 mice; conditions: therapy commenced one day after infection
[3] = room temperature at pH 2-3

COC(=O)N[C@H]1[C@@H](C)O[C@@H](O[C@H]2C/C=C(\C)[C@@H]3C=C[C@@H]4[C@@H](O[C@H]5C[C@@H](O[C@H]6CC(O[C@H]7C[C@H](O)[C@@H](O)[C@H](C)O7)C(O[C@@H]7C[C@@H](O)[C@@H](OC)[C@H](C)O7)[C@H](C)O6)[C@@H](O)[C@H](C)O5)[C@@H](C)C[C@H](C)[C@H]4[C@]3(C)/C(O)=C3\C(=O)O[C@]4(C[C@@H](C)C(CO)=C[C@H]4/C=C/2C)C3=O)C[C@]1(C)[N+](=O)[O-] (some centres unmarked) [Kijanimicin]
in vitro activity against E. lentum (E. lentum): active | oral LD50 ([1]; oral): greater than 1000 mg/kg | therapeutic index (LD50 / PD50), oral ([1]; oral): about 10 | subcutaneous LD50 ([1]; subcutaneous): greater than 1000 mg/kg | therapeutic index (LD50 / PD50), subcutaneous ([1]; subcutaneous): about 10 | in vitro activity against Peptostreptococcus (Peptostreptococcus): active | in vitro activity against Peptococcus species (Peptococcus species): active | anti-inflammatory effect [2]: exhibits an anti-inflammatory effect | anti-tumor activity against P-388 leukemia (P-388 leukemia): exhibits anti-tumor activity | antiparasitic activity, Plasmodium berghei (Plasmodium berghei): exhibits antiparasitic activity | loss of activity [3]: loses activity rapidly
